Experimental data: patent US8829195B2, “Compounds and compositions for inhibiting the activity of ABL1, ABL2 and BCR-ABL1” (Novartis AG, priority 2012, dated 2014)

Tests used:
[1] = target: T1, ABL1 (64-515) (Homo sapiens, UniProt P00519); test: Caliper ABL1 (64-515) microfluidic mobility shift assay; assay type: biochemical
T1 construct: 3.5 nM ABL (ABL(64-515), produced in-house from E. coli); His6 followed by a PreScission protease cleavage site (N, cleaved yes); made in house; host or cells: E. coli (BL21 (DE3) according to b733)
Method: All assays were performed in 384-well microtiter plates. Each assay plate contained 8-point serial dilutions for 40 test compounds, as well as four 8-point serial dilutions of staurosporine as a reference compound, plus 16 high and 16 low controls. Liquid handling and incubation steps were done on a Thermo CatX workstation equipped with Innovadyne Nanodrop Express. Between pipetting steps, tips were cleaned in wash cycles using wash buffer.
The assay plates were prepared by addition of 50 mL per well of compound solution in 90% DMSO. […] Plates with terminated kinase reactions were transferred to the Caliper LC3000 workstations for reading. Phosphorylated and unphosphorylated peptides were separated using the Caliper microfluidic mobility shift technology. Briefly, samples from terminated kinase reactions were applied to the chip. Analytes are transported through the chip by constant buffer flow and the migration of the substrate peptide is monitored by the fluorescence signal of its label. Phosphorylated peptide (product) and unphosphorylated peptide (substrate) are separated in an electric field by their charge/mass ratio. Kinase activities were calculated from the amounts of formed phospho-peptide. IC50 values were determined from percent inhibition values at different compound concentrations by non-linear regression analysis.
Preparation of compound dilutions: Test compounds were dissolved in DMSO (10 mM) and transferred into 1.4 mL flat bottom or V-shaped Matrix tubes carrying a unique 2D matrix. The stock solutions were stored at +2° C. if not used immediately. For the test procedure the vials were defrosted and identified by a scanner whereby a working sheet was generated that guided the subsequent working steps.
Compound dilutions were made in 96-well plates. This format enabled the assay of maximally 40 individual test compounds at 8 concentrations (single points) including 4 reference compounds. The dilution protocol included the production of “pre-dilution plates”, “master plates” and “assay plates”.
Pre-dilution plates: Polypropylene 96-well plates were used as pre-dilution plates. […] All dilution steps were done on a HamiltonSTAR robot.
These plates were used directly for the assay which was performed in a total volume of 9.05 μL.

[2] = target: T1, ABL1 (64-515); test: Radio ABL1 (64-515) radiometric filter-binding assay; assay type: biochemical
Method: Expression and purification of protein kinase—Expression and purification of human ABL was performed using standard expression purification procedures. […] The His-ABL was expressed in E. coli BL21 (DE3) and the ABL proteins were isolated by Ni-affinity on a Ni-NTA column (Qiagen). The His-tag was removed by PreScission protease (GE Healthcare) and the non-phosphoprylated ABL further purified on a Mono Q HR 10/10 (GE Healthcare, mono-phosphorylated ABL is about 10-20% of total ABL protein) and HiLoad 16/60 Superdex 200 size exclusion column (GE Healthcare).
For determination of ABL kinase activity, the radiometric filter-binding assay was used. […] 10 μL of enzyme (ranging between 5 nM to 20 nM) was added to initiate the reaction. Pre-incubation of enzyme with compounds (when stated) was performed by exposing the enzyme to compounds prior to addition of the substrate mixture (ATP and/or peptide substrate). […] Filter-plates were washed 3× with 0.5% H3PO4, followed by addition of 30 μL scintillation cocktail (Microscint, Perkin Elmer) per well and then analysed in a TopCount NXT scintillation counter (Perkin Elmer). Results were expressed as IC50 values.

[3] = target: T2, Ba/F3-BCR-ABL1-WT cells (Homo sapiens, UniProt P00519); test: Ba/F3-BCR-ABL1-WT cell proliferation assay; assay type: cell-based, murine; settings: 48 hours; read-out: Ba/F3-BCR-ABL1-WT IC50
T2 construct: fused on or other part: P11274 (Breakpoint cluster region protein)
Method: To generate Ba/F3 cells that depend on BCR-ABL1 expression for growth and survival, Ba/F3 cells were engineered to express BCR-ABL1 using retroviral transduction with a MSCV based retroviral vector containing a p210 BCR-ABLlexpression cassette. […] These cells are referred to as Ba/F3-BCR-ABL-WT.
Ba/F3-WT cells were maintained in RPMI1640 media with L-glutamine, HEPES (Lonza), 10% FBS (Gibco) and 5 ng/ml IL-3 (Calbiochem). Ba/F3-BCR-ABL1-WT cells and Ba/F3-BCR-ABL1-T315I cells were manitained in RPMI1640 media with L-glutamine, HEPES (Lonza) and 10% FBS (Gibco).
For each cell line, the cell density was adjusted to 50 000 cells/mL and 50 μL (2500 cells) added per well of a 384-well assay plate.
Test compounds were resuspended in DMSO at a concentration of 10 mM. A serial three-fold dilution of each compound with DMSO was performed in 384-well plates using the Janus Liquid Dispenser (PerkinElmer). Compound was delivered to the assay plates containing 2500 cells in a 50 μL volume via Acoustic delivery from an ATS-100 (EDC).
Cells were incubated at 37° C. in a humidified environment with 5% carbon dioxide for 48 hours. Britelite plus solution (Perkin Elmer) was prepared according to the manufacturer's instructions and 25 μL added to each well of the assay plate. […] The degree of luminescence correlates with the number of cells in each well. The effect of each inhibitor concentration can therefore be calculated and IC50 values generated.

[4] = target: T3, Ba/F3-BCR-ABL1-T315I cells (Homo sapiens, UniProt P00519, T315I, cells depend on it); test: Ba/F3-BCR-ABL1-T315I cell proliferation assay; assay type: cell-based, murine; settings: 48 hours; read-out: Ba/F3-BCR-ABL1-T315I IC50
T3 construct: A similar approach was used to generate Ba/F3 cells that depend on a BCR-ABL1 variant in which threonine 315 is replaced with isoleucine; fused on or other part: P11274 (Breakpoint cluster region protein)

[5] = comparison of ortho substitution on R3/R4 ring

Row | SMILES | IC50 [1, 5] [nM] | IC50 [2] [nM] | IC50 ([1]; Table of Biochemical Data) [nM] | GI50 [3] [nM] | GI50 [4] [nM]
1 | O=C(Nc1ccc(OC(F)(F)F)cc1Cl)c1cnc(N2CC[C@@H](O)C2)c(-c2ccn[nH]2)c1 | 1600 |  |  |  | 
2 | Cc1cc(OC(F)(F)F)ccc1NC(=O)c1cnc(N2CC[C@@H](O)C2)c(-c2ccn[nH]2)c1 | 1800 |  |  |  | 
3 | O=C(Nc1ccc(OC(F)(F)F)cc1)c1ccc(N2CC[C@@H](O)C2)c(-c2ccn[nH]2)c1 [Example 1, (R)-4-(3-Hydroxypyrrolidin-1-yl)-3-(1H-pyrazol-5-yl)-N-(4-(trifluoromethoxy)phenyl)benzamide] |  | < 3 | 2.2 |  | 
4 | Cc1cc(-c2cc(C(=O)Nc3ccc(OC(F)(F)F)cc3)cnc2N2CC[C@@H](O)C2)[nH]n1 [Example 3, (R)-6-(3-Hydroxypyrrolidin-1-yl)-5-(3-methyl-1H-pyrazol-5-yl)-N-(4-(trifluoromethoxy)phenyl)nicotinamide] |  | 4 | 0.7 | 7.5 | 133
5 | Cc1cn[nH]c1-c1cc(C(=O)Nc2ccc(OC(F)(F)F)cc2)cnc1N1CC[C@@H](O)C1 [Example 4, (R)-6-(3-Hydroxypyrrolidin-1-yl)-5-(4-methyl-1H-pyrazol-5-yl)-N-(4-(trifluoromethoxy)phenyl)nicotinamide] |  | 3.4 | 1.3 | 11.7 | 327
6 | O=C(Nc1ccc(OC(F)(F)F)cc1)c1cnc(N2CC[C@@H](O)C2)c(-c2[nH]ncc2F)c1 [Example 5, (R)-5-(4-Fluoro-1H-pyrazol-5-yl)-6-(3-hydroxypyrrolidin-1-yl)-N-(4-(trifluoromethoxy)phenyl)nicotinamide] |  | 7 | 1.2 | 8.1 | 134
7 | Cn1cc(-c2cc(C(=O)Nc3ccc(OC(F)(F)F)cc3)cnc2N2CC[C@@H](O)C2)cn1 [Example 6, (R)-6-(3-Hydroxypyrrolidin-1-yl)-5-(1-methyl-1H-pyrazol-4-yl)-N-(4-(trifluoromethoxy)phenyl)nicotinamide] |  | 3 | 3.2 |  | 
8 | O=C(Nc1ccc(OC(F)(F)F)cc1)c1cnc(N2CC[C@H](CO)C2)c(-c2ccn[nH]2)c1 [Example 7, (S)-6-(3-(Hydroxymethyl)pyrrolidin-1-yl)-5-(1H-pyrazol-5-yl)-N-(4-(trifluoromethoxy)phenyl)nicotinamide] |  | < 3 | 0.4 | 6 | 132
9 | O=C(Nc1ccc(OC(F)(F)Cl)cc1)c1cnc(N2CC[C@H](CO)C2)c(-c2ccn[nH]2)c1 [Example 10, (S)—N-(4-(Chlorodifluoromethoxy)phenyl)-6-(3-(hydroxymethyl)pyrrolidin-1-yl)-5-(1H-pyrazol-5-yl)nicotinamide] |  | < 0.13 | 0.3 | 1.9 | 44
10 | O=C(Nc1ccc(SC(F)(F)F)cc1)c1cnc(N2CC[C@@H](O)C2)c(-c2ccn[nH]2)c1 [Example 11, (R)-6-(3-Hydroxypyrrolidin-1-yl)-5-(1H-pyrazol-5-yl)-N-(4-((trifluoromethyl)thio)phenyl)nicotinamide] |  | < 3 | < 0.13 | 1 | 38
11 | O=C(Nc1ccc(SC(F)(F)F)cc1)c1cnc(N2CC[C@H](CO)C2)c(-c2ccn[nH]2)c1 [Example 12, (S)-6-(3-(Hydroxymethyl)pyrrolidin-1-yl)-5-(1H-pyrazol-5-yl)-N-(4-((trifluoromethyl)thio)phenyl)nicotinamide] |  | 6 | 0.5 | 1.9 | 38
12 | O=C(Nc1ccc(OC(F)(F)F)c(F)c1)c1cnc(N2CC[C@@H](O)C2)c(-c2ccn[nH]2)c1 [Example 13, (R)—N-(3-Fluoro-4-(trifluoromethoxy)phenyl)-6-(3-hydroxypyrrolidin-1-yl)-5-(1H-pyrazol-5-yl)nicotinamide] |  | 10 | 0.6 | 9.6 | 150
13 | O=C(Nc1ccc(OC(F)(F)F)c(F)c1)c1cnc(N2CC[C@H](CO)C2)c(-c2ccn[nH]2)c1 [Example 14, (S)—N-(3-Fluoro-4-(trifluoromethoxy)phenyl)-6-(3-(hydroxymethyl)pyrrolidin-1-yl)-5-(1H-pyrazol-5-yl)nicotinamide] |  | 10 | 0.9 | 18.9 | 218
14 | O=C(Nc1ccc(SC(F)(F)F)c(F)c1)c1cnc(N2CC[C@@H](O)C2)c(-c2ccn[nH]2)c1 [Example 15, (R)—N-(3-Fluoro-4-((trifluoromethyl)thio)phenyl)-6-(3-hydroxypyrrolidin-1-yl)-5-(1H-pyrazol-5-yl)nicotinamide] |  | 11 | 0.3 | 1.9 | 31
15 | O=C(Nc1ccc(C(F)(F)C(F)(F)F)cc1)c1cnc(N2CC[C@@H](O)C2)c(-c2ccn[nH]2)c1 [Example 16, (R)-6-(3-Hydroxypyrrolidin-1-yl)-N-(4-(perfluoroethyl)phenyl)-5-(1H-pyrazol-5-yl)nicotinamide] |  | 12 | < 0.13 | 4.1 | 92
16 | O=C(Nc1ccc(S(F)(F)(F)(F)F)cc1)c1cnc(N2CC[C@@H](O)C2)c(-c2ccn[nH]2)c1 [Example 17, (R)-6-(3-Hydroxypyrrolidin-1-yl)-N-(4-(pentafluorosulfanyl)phenyl)-5-(1H-pyrazol-5-yl)nicotinamide] |  | 3 | 2.4 | 15.5 | 199
17 | O=C(Nc1ccc(SC(F)(F)Cl)cc1)c1cnc(N2CC[C@@H](O)C2)c(-c2ccn[nH]2)c1 [Example 18, (R)—N-(4-((Chlorodifluoromethyl)thio)phenyl)-6-(3-hydroxypyrrolidin-1-yl)-5-(1H-pyrazol-5-yl)nicotinamide] |  | 2 | 0.2 | 1.5 | 32
18 | O=C(Nc1ccc(OC(F)(F)C(F)(F)F)cc1)c1cnc(N2CC[C@@H](O)C2)c(-c2ccn[nH]2)c1 [Example 19, (R)-6-(3-Hydroxypyrrolidin-1-yl)-N-(4-(perfluoroethoxy)phenyl)-5-(1H-pyrazol-5-yl)nicotinamide] |  | 5 | 1.8 | 13.5 | 236
19 | O=C(Nc1ccc(OC(F)(F)Cl)cc1)c1ccc(N2CC[C@@H](O)C2)c(-c2ccn[nH]2)c1 [Example 20, (R)—N-(4-(Chlorodifluoromethoxy)phenyl)-4-(3-hydroxypyrrolidin-1-yl)-3-(1H-pyrazol-5-yl)benzamide] |  | 1.3 | 0.4 |  | 
20 | Cc1cc(-c2cc(C(=O)Nc3ccc(OC(F)(F)Cl)cc3)ccc2N2CC[C@@H](O)C2)[nH]n1 [Example 22, (R)—N-(4-(Chlorodifluoromethoxy)phenyl)-4-(3-hydroxypyrrolidin-1-yl)-3-(3-methyl-1H-pyrazol-5-yl)benzamide] |  | 6 | < 0.64 |  | 
21 | Cn1nccc1-c1cc(C(=O)Nc2ccc(OC(F)(F)Cl)cc2)cnc1N1CC[C@@H](O)C1 [Example 27, (R)—N-(4-(Chlorodifluoromethoxy)phenyl)-6-(3-hydroxypyrrolidin-1-yl)-5-(1-methyl-1H-pyrazol-5-yl)nicotinamide] |  | 2 | 1.1 |  | 
22 | O=C(Nc1ccc(OC(F)(F)Cl)cc1)c1cnc(N2CC[C@@H](O)C2)c(-c2cnn(CCO)c2)c1 [Example 29, (R)—N-(4-(Chlorodifluoromethoxy)phenyl)-5-(1-(2-hydroxyethyl)-1H-pyrazol-4-yl)-6-(3-hydroxypyrrolidin-1-yl)nicotinamide] |  | 9 | 0.9 |  | 
23 | O=C(Nc1ccc(SC(F)(F)F)nc1)c1cnc(N2CC[C@@H](O)C2)c(-c2ccn[nH]2)c1 [Example 32, (R)-6-(3-Hydroxypyrrolidin-1-yl)-5-(1H-pyrazol-5-yl)-N-(6-((trifluoromethyl)thio)pyridin-3-yl)nicotinamide] |  | 3 | 13 |  | 
24 | COC(=O)C1CCN(c2ncc(C(=O)Nc3ccc(OC(F)(F)Cl)cc3)cc2-c2ccn[nH]2)C1 (stereo not drawn) [Example 36, Methyl 1-(5-((4-(chlorodifluoromethoxy)phenyl)carbamoyl)-3-(1H-pyrazol-5-yl)pyridin-2-yl)pyrrolidine-3-carboxylate] |  |  | 2.1 | 1.9 | 71
25 | O=C(Nc1ccc(OC(F)(F)Cl)cc1)c1cnc(N2CCC(C(=O)O)C2)c(-c2ccn[nH]2)c1 (stereo not drawn) [Example 37] |  |  | 0.5 |  | 
26 | CC(C)[C@H](N)C(=O)O[C@@H]1CCN(c2ncc(C(=O)Nc3ccc(OC(F)(F)Cl)cc3)cc2-c2ccn[nH]2)C1 [Example 38] |  | 4 | 2.5 |  | 
27 | O=C(Nc1ccc(OC(F)(F)Cl)cc1)c1cnc(N2CC[C@@H](OP(=O)(O)O)C2)c(-c2ccn[nH]2)c1 [Example 39, (R)-1-(5-(4-(Chlorodifluoromethoxy)phenyl)carbamoyl)-3-(1H-pyrazol-5-yl)pyridin-2-yl)pyrrolidin-3-yl dihydrogen phosphate] |  | 3 | 1.3 |  | 
28 | O=C(Nc1ccc(OC(F)(F)F)cc1)c1cnc(N2CC[C@@H](OP(=O)(O)O)C2)c(-c2ccn[nH]2)c1 [Example 40, (R)-1-(3-(1H-Pyrazol-5-yl)-5-(4-(trifluoromethoxy)phenyl)carbamoyl)pyridin-2-yl)pyrrolidin-3-yl dihydrogen phosphate] |  |  | 2.1 |  | 
